The compounds below were run against T1, recombinant human 5-HT6 receptor (Homo sapiens, UniProt P50406) (assay: in vitro radioligand binding, [3H]LSD competition in HEK293 cell membranes). Settings: not given.
T1 construct: expressed in transfected cells
Procedure: The binding activity of compounds of this invention in vitro was determined as follows. Duplicate determinations of ligand affinity are made by competing for binding of [^3H]LSD in cell membranes derived from HEK293 cells stably expressing recombinant human 5-HT6 receptor.
All determinations were made in assay buffer containing 50 mM Tris-HCl, 10 mM MgSO4, 0.5 mM EDTA, 1 mM ascorbic acid, pH 7.4 at 37° C., in a 250 microliter reaction volume. Assay tubes containing [^3H] LSD (5 nM), competing ligand, and membrane were incubated in a shaking water bath for 60 min. at 37° C., filtered onto Packard GF-B plates (pre-soaked with 0.3% PEI) using a Packard 96 well cell harvester and washed 3 times in ice cold 50 mM Tris-HCl. Bound [^3H] LSD was determined as radioactive counts per minute using Packard TopCount.
Displacement of [3H]LSD from the binding sites was quantified by fitting concentration-binding data to a 4-parameter logistic equation:
[formula] where Hill is the Hill slope, [ligand] is the concentration of competing radioligand and IC50 is the concentration of radioligand producing half-maximal specific binding of radioligand. The specific binding window is the difference between the Bmax and the basal parameters.

T1 sequence (P50406 whole entry): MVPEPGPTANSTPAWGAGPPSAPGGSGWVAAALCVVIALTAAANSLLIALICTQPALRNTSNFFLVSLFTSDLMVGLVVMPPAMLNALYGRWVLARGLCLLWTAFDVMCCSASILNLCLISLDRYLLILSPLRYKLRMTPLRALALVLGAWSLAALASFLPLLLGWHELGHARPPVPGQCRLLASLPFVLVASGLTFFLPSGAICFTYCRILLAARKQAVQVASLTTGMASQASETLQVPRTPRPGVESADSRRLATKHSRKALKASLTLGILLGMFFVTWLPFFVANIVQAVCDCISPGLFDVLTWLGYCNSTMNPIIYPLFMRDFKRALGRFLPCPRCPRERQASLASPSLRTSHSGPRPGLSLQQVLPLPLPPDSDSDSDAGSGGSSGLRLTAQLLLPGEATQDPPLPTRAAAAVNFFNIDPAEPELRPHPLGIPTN

SMILES | Ki [nM]
Cn1c(S(=O)(=O)c2ccccc2)cc2c(N3CCNCC3)cccc21 [Compound 5, 2-Benzenesulfonyl-1-methyl-4-piperazin-1-yl-1H-indole] | 0.2
Cn1c(S(=O)(=O)c2cccc(Br)c2)cc2c(N3CCNCC3)cccc21 [Compound 14, 2-(3-Bromo-benzenesulfonyl)-1-methyl-4-piperazin-1-yl-1H-indole] | 0.501

Same assay, conditions: [3H]LSD (5 nM) displacement, membranes of HEK293 cells stably expressing recombinant human 5-HT6 receptor, pH 7.4, 37° C., 60 min; read-out: pKi (converted)

SMILES | Ki [nM]
CN1CCN(c2cccc3[nH]c(S(=O)(=O)c4ccccc4)cc23)CC1 [Compound 2, 2-Benzenesulfonyl-4-(4-methyl-piperazin-1-yl)-1H-indole] | 0.126
CC1CN(c2cccc3[nH]c(S(=O)(=O)c4ccccc4)cc23)CC(C)N1 (stereo not drawn) [Compound 9, 2-Benzenesulfonyl-4-(3,5-dimethyl-piperazin-1-yl)-1H-indole] | 0.794
O=S(=O)(c1ccccc1)c1cc2c(C3CCNCC3)cccc2[nH]1 [Compound 15, 2-Benzenesulfonyl-4-piperidin-4-yl-1H-indole] | 0.631
CN1CCN(c2cccc3[nH]c(S(=O)(=O)c4ccccc4F)cc23)CC1 [Compound 12, 2-(2-Fluoro-benzenesulfonyl)-4-(4-methyl-piperazin-1-yl)-1H-indole] | 0.126
